The target in one experiment is human CB1 receptors (Homo sapiens (Human), UniProt P21554). In words: cAMP assay, CHO cells expressing human CB1 receptors. It is filed as cell-based. As for the experimental part: (§1) CHO cells expressing human CB1 or CB2 receptors are seeded 17-24 hours prior to the experiment 50.000 cells per well in a black 96 well plate with flat clear bottom (Corning Costar #3904) in DMEM (Invitrogen No. 31331), 1×HT supplement, with 10% fetal calf serum and incubated at 5% CO2 and 37° C. in a humidified incubator. The growth medium was exchanged with Krebs Ringer Bicarbonate buffer with 1 mM IBMX and incubated at 30° C. for 30 min. Compounds were added to a final assay volume of 100 μl and incubated for 30 min at 30° C. […] The time-resolved energy transfer is measured by a TRF reader (Evotec Technologies GmbH), equipped with a ND:YAG laser as excitation source. The plate is measured twice with the excitation at 355 nm and at the emission with a delay of 100 ns and a gate of 100 ns, total exposure time 10 s at 730 (bandwidth30 nm) or 645 nm (bandwidth 75 nm), respectively. The FRET signal is calculated as follows: FRET=T730-Alexa730-P(T645-B645) with P=Ru730-B730/Ru645-B645, where T730 is the test well measured at 730 nM, T645 is the test well measured at 645 nm, B730 and B645 are the buffer controls at 730 nm and 645 nm, respectively. cAMP content is determined from the function of a standard curve spanning from 10 μM to 0.13 nM cAMP.
(§2) EC50 values were determined using Activity Base analysis (ID Business Solution, Limited).
(In general: cAMP levels reflect the balance of adenylyl cyclase and phosphodiesterase activity.)

The next experiment concerns the target human CB2 receptors (Homo sapiens (Human), UniProt P34972). In words: cAMP assay, CHO cells expressing human CB2 receptors. It is filed as cell-based. How it is done: as §1, §2
Where [1] appears, read: functional cAMP assay, CHO cells expressing human CB1, read-out: EC50 CB1 human.
Setting [2] is: functional cAMP assay, CHO cells expressing human CB2, read-out: EC50 CB2 human.

The EC50 is the midpoint of the concentration-response curve.

Where two headings read alike, the source gives them in different places.

Chain of human CB2 receptors (P34972 whole entry): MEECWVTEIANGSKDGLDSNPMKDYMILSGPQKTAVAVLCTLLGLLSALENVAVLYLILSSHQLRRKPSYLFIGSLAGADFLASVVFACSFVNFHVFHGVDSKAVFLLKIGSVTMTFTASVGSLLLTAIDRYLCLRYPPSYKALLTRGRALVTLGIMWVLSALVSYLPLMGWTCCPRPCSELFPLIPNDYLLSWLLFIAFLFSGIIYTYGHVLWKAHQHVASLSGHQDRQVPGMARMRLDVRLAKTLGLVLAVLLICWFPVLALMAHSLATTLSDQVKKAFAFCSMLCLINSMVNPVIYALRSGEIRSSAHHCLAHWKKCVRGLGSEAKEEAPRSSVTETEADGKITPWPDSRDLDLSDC
Chain of human CB1 receptors (P21554 whole entry): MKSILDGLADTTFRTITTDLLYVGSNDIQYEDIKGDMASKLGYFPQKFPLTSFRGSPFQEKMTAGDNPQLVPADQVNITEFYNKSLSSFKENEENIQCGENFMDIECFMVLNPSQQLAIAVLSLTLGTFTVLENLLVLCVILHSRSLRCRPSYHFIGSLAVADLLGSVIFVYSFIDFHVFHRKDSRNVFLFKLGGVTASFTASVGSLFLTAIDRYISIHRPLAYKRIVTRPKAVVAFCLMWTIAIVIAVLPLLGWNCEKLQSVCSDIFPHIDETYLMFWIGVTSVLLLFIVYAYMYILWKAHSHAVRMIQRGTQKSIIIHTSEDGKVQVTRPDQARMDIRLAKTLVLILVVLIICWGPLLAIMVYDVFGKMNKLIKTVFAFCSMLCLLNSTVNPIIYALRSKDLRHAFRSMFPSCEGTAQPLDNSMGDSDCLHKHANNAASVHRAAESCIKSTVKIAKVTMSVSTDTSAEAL

As for `CC1(c2nc(-c3cc(OCC4CC4)c(C4CC4)cn3)no2)COC1` [Example 28, 3-[5-cyclopropyl-4-(cyclopropylmethoxy)pyridin-2-yl]-5-(3-methyloxetan-3-yl)-1,2,4-oxadiazole], the EC50 on human CB1 receptors (setting [1]) is above 10000 nM; at human CB2 receptors (setting [2]) it was 16 nM.
For `c1c(-c2noc(C3CNC3)n2)ncc(C2CC2)c1OCC1CC1` [Example 29, 5-(azetidin-3-yl)-3-[5-cyclopropyl-4-(cyclopropylmethoxy)pyridin-2-yl]-1,2,4-oxadiazole], the EC50 on human CB1 receptors (setting [1]) was above 10000 nM; on human CB2 receptors (setting [2]), 797 nM.
For `CCC1(CC)COC(c2cc(OCC(F)(F)F)c(N3CC(F)(F)C3)cn2)=N1` [Example 30, 2-[5-(3,3-difluoroazetidin-1-yl)-4-(2,2,2-trifluoroethoxy)pyridin-2-yl]-4,4-diethyl-5H-1,3-oxazole], the EC50 on human CB1 receptors (setting [1]) was above 10000 nM; on human CB2 receptors (setting [2]) it was 2.6 nM.
With `FC(F)(F)COc1cc(C2=NC3(CCCCC3)CO2)ncc1C1CC1` [Example 31, 2-[5-cyclopropyl-4-(2,2,2-trifluoroethoxy)pyridin-2-yl]-3-oxa-1-azaspiro[4.5]dec-1-ene], the EC50 is above 10000 nM at human CB1 receptors (setting [1]) and 19.4 nM at human CB2 receptors (setting [2]).
As for `CC(C)(C)c1nc(-c2cc(OCC3CC3)c(N3CC(F)(F)C3)cn2)no1` [Example 32, 5-tert-butyl-3-[4-(cyclopropylmethoxy)-5-(3,3-difluoroazetidin-1-yl)pyridin-2-yl]-1,2,4-oxadiazole], the half-maximal effective concentration (EC50) was above 10000 nM at human CB1 receptors (setting [1]) and 8.6 nM at human CB2 receptors (setting [2]).
For `CC(C)(C)c1nc(-c2cc(OCC(F)(F)F)c(C3CC3)cn2)no1` [Example 33, 5-tert-butyl-3-[5-cyclopropyl-4-(2,2,2-trifluoroethoxy)pyridin-2-yl]-1,2,4-oxadiazole], the EC50 on human CB1 receptors was above 10000 nM; at human CB2 receptors, 6.9 nM.
In the case of `CC(C)(C)c1nc(-c2cc(OCC3CC3)c(N3CCC34COC4)cn2)no1` [Example 35, 1-[6-(5-tert-butyl-1,2,4-oxadiazol-3-yl)-4-(cyclopropylmethoxy)pyridin-3-yl]-6-oxa-1-azaspiro[3.3]heptane], the EC50 was above 10000 nM at human CB1 receptors (setting [1]) and 32.8 nM at human CB2 receptors (setting [2]).
As to `CC(C)c1nc(-c2cc(OCC(F)(F)F)c(C3CC3)cn2)no1` [Example 36, 3-[5-cyclopropyl-4-(2,2,2-trifluoroethoxy)pyridin-2-yl]-5-propan-2-yl-1,2,4-oxadiazole], the EC50 on human CB1 receptors (setting [1]) is above 10000 nM; at human CB2 receptors (setting [2]), 20.9 nM.
For the molecule `OC1(c2nc(-c3cc(OCC(F)(F)F)c(C4CC4)cn3)no2)CC1` [Example 37, 1-[3-[5-cyclopropyl-4-(2,2,2-trifluoroethoxy)pyridin-2-yl]-1,2,4-oxadiazol-5-yl]cyclopropan-1-ol], the values for the concentration for a half-maximal effect (EC50) on human CB1 receptors (setting [1]) and at human CB2 receptors (setting [2]) were above 10000 nM and 236 nM, respectively.
`CC1(c2nc(-c3cc(OCC(F)(F)F)c(C4CC4)cn3)no2)COC1` [Example 38, 3-[5-cyclopropyl-4-(2,2,2-trifluoroethoxy)pyridin-2-yl]-5-(3-methyloxetan-3-yl)-1,2,4-oxadiazole]: the EC50 on human CB1 receptors (setting [1]) was above 10000 nM; on human CB2 receptors (setting [2]) it was 128 nM.
On to `FC(F)(F)COc1cc(-c2ncon2)ncc1C1CC1` [Example 39, 3-[5-cyclopropyl-4-(2,2,2-trifluoroethoxy)pyridin-2-yl]-1,2,4-oxadiazole], for which the EC50 at human CB1 receptors (setting [1]) is above 10000 nM; at human CB2 receptors (setting [2]) it was 434 nM.
For `CC(C)(C)c1noc(-c2cc(OCC(F)(F)F)c(C3CC3)cn2)n1` [Example 40, 3-tert-butyl-5-[5-cyclopropyl-4-(2,2,2-trifluoroethoxy)pyridin-2-yl]-1,2,4-oxadiazole], the EC50 on human CB1 receptors (setting [1]) is above 10000 nM; at human CB2 receptors (setting [2]) it was 2.2 nM.
Taken in the same sequence, the figures for `CC1(C)CN=C(c2cc(OCC(F)(F)F)c(C3CC3)cn2)O1` [Example 41, 2-[5-cyclopropyl-4-(2,2,2-trifluoroethoxy)pyridin-2-yl]-5,5-dimethyl-4H-1,3-oxazole] were above 10000 nM and 53.9 nM.

Values taken from US10308659B2, “Pyridine derivatives” (Hoffmann-La Roche Inc., priority 2013, dated 2019).
